Laboratory results published in patent US20130040935A1, “CYCLIC KETO-ENOLS FOR THERAPY” (BAYER INTELLECTUAL PROPERTY GMBH, priority 2010, published 2013).
Where two headings read alike, the source gives them in different places.

Biological target: T1, human ACC1 (acetyl-coenzyme A carboxylase alpha transcript variant 1) (Homo sapiens, UniProt Q13085)
T1 construct: FLAG (C); made in house; host or cells: baculovirus-infected insect cells (Hi5)
Test: Human ACC1 enzyme assay, Assay B1 (ADP-Glo)
Assay type: biochemical

[1] = Assay B1, read-out: ACC 1 (=B1) IC50
[2] = Assay B1, ADP-Glo, read-out: ACC 1 (=B1) IC50

Description: Essentially, the enzyme activity is measured by quantifying the adenosine diphosphate (ADP) formed as a byproduct of the enzyme reactions using the ADP-Glo™ detection system from Promega. In this test, initially the adenosine triphosphate (ATP) not consumed in the enzyme reaction is converted quantitatively with an adenylate cyclase (“ADP-GLO reagent”) into cAMP, the adenylate cyclase is then stopped and (“kinase detection reagent”) the ADP formed is subsequently converted into ATP, which is converted in a luciferase-based reaction into a glow luminescence signal.
The concentration of the hACC1 was adapted to the respective activity of the enzyme and adjusted such that the assay operated in the linear range. […] The amount of light emitted was taken as a measure for the amount of ADP formed and thus for the enzyme activity of the hACC1.

SMILES | IC50 | IC50 [1] | further results
Cc1ccc(-c2ccc(F)cc2)c(C)c1C1C(=O)N2CCCCN2C1=O [8-1, 2-(4′-fluoro-2,4-dimethylbiphenyl-3-yl)tetrahydro-1H-pyrazolo[1,2-a]pyridazine-1,3(2H)-dione] | 3560 nM | – | –
O=C1C(c2cc(-c3ccc(Cl)cc3Cl)ccc2Cl)C(=O)N2CCOCCN12 [8-9, 8-(2′,4,4′-trichlorobiphenyl-3-yl)tetrahydro-7H-pyrazolo[1,2-d][1,4,5]oxadiazepine-7,9(8H)-dione] | 682 nM | – | –
CN1C(=O)C(c2cc(-c3ccc(Cl)cc3)ccc2Cl)C(=O)N1C [8-15, 4-(4,4′-dichlorobiphenyl-3-yl)-1,2-dimethyl-1H-pyrazole-3,5(2H,4H)-dione] | – | 5600 nM | –
O=C1C(c2cc(-c3ccc(Cl)c(Cl)c3)ccc2Cl)C(=O)N2CCOCCN12 [8-10, 8-(3′,4,4′-trichlorobiphenyl-3-yl)tetrahydro-7H-pyrazolo[1,2-d][1,4,5]oxadiazepine-7,9(8H)-dione] | 2350 nM | – | –
Cc1ccc(-c2ccc(Cl)cc2)cc1-c1c(O)c2ccc(F)cc2[nH]c1=O [9-8, 3-(4′-chloro-4-methylbiphenyl-3-yl)-7-fluoro-4-hydroxyquinolin-2(1H)-one] | – | 174 nM | –
Cc1ccc(-c2ccc(Cl)cc2)cc1C1C(=O)N(C)N(C)C1=O [8-14, 4-(4′-chloro-4-methylbiphenyl-3-yl)-1,2-dimethyl-1H-pyrazole-3,5(2H,4H)-dione] | – | 7460 nM | –
COCCC1(C)NC(=O)C(c2cc(-c3ccc(Cl)cc3)ccc2C)=C1O (stereo not drawn) [1-47, 3-(4′-chloro-4-methylbiphenyl-3-yl)-4-hydroxy-5-(2-methoxyethyl)-5-methyl-1,5-dihydro-2H-pyrrol-2-one] | – | 3190 nM | –
Cc1ccc(-c2ccc(F)c(F)c2)cc1C1=C(O)C2(CCOCC2)NC1=O [1-37, 3-(3′,4′-difluoro-4-methylbiphenyl-3-yl)-4-hydroxy-8-oxa-1-azaspiro[4.5]dec-3-en-2-one] | – | 850 nM | –
Cc1ccc(-c2ccc(Cl)cc2)cc1C1=C(O)C(C(C)(C)C)OC1=O (stereo not drawn) [2-35, 5-tert-butyl-3-(4′-chloro-4-methylbiphenyl-3-yl)-4-hydroxyfuran-2(5H)-one] | – | – | IC50 [2]: 1190 nM
Cc1ccc(-c2cc(F)c(F)c(F)c2)cc1C1=C(O)C2(CCOCC2)NC1=O [1-36, 4-hydroxy-3-(3′,4′,5′-trifluoro-4-methylbiphenyl-3-yl)-8-oxa-1-azaspiro[4.5]dec-3-en-2-one] | 1500 nM | – | –
Cc1ccc(-c2ccc(Cl)cc2)cc1C1=C(O)C2(CCOCC2)OC1=O [2-37, 3-(4′-chloro-4-methylbiphenyl-3-yl)-4-hydroxy-1,8-dioxaspiro[4.5]dec-3-en-2-one] | 1050 nM | – | –
Cc1ccc(-c2ccc(Cl)cc2)cc1C1=C(O)C(C)(C2CCCCC2)OC1=O (stereo not drawn) [2-40, 3-(4′-chloro-4-methylbiphenyl-3-yl)-5-cyclohexyl-4-hydroxy-5-methylfuran-2(5H)-one] | 1510 nM | – | –
CC1(F)CN2C(=O)C(c3cc(-c4ccc(Cl)cc4)ccc3Cl)C(=O)N2C1 [8-13, 2-(4,4′-dichlorobiphenyl-3-yl)-6-fluoro-6-methyldihydro-1H,5H-pyrazolo[1,2-a]pyrazole-1,3(2H)-dione] | – | 1360 nM | –
Cc1ccc(-c2ccc(Cl)cc2)cc1C1=C(O)CN(CC(C)C)C1=O [1-27, 3-(4′-chloro-4-methylbiphenyl-3-yl)-4-hydroxy-1-(2-methylpropyl)-1,5-dihydro-2H-pyrrol-2-one] | – | 1940 nM | –
O=C1C(c2cc(-c3ccc(F)c(Cl)c3)ccc2Cl)C(=O)N2CCCCN12 [8-4, 2-(3′,4-dichloro-4′-fluorobiphenyl-3-yl)tetrahydro-1H-pyrazolo[1,2-a]pyridazine-1,3(2H)-dione] | – | 3920 nM | –
COC1CCC2(CC1)NC(=O)C(c1cc(-c3cc(F)ccc3F)ccc1C)=C2O (stereo not drawn) [1-80, 3-(2′,5′-difluoro-4-methylbiphenyl-3-yl)-4-hydroxy-8-methoxy-1-azaspiro[4.5]dec-3-en-2-one] | 2180 nM | – | –
Cc1ccc(-c2ccc(Cl)cc2)cc1C1C(=O)N2C3CCC(C3)N2C1=O (stereo not drawn) [8-16, 2-(4′-chloro-4-methylbiphenyl-3-yl)tetrahydro-1H-5,8-methanopyrazolo[1,2-a]pyridazine-1,3(2H)-dione] | 593 nM | – | –
O=C1OC2(CCCC2)C(O)=C1c1cc(-c2cc(F)c(F)c(F)c2)ccc1Cl [2-24, 3-(4-chloro-3′,4′,5′-trifluorobiphenyl-3-yl)-4-hydroxy-1-oxaspiro[4.4]non-3-en-2-one] | – | – | IC50 [2]: 2090 nM
O=C1NC2(CCOCC2)C(O)=C1c1cc(-c2cc(F)c(F)c(F)c2)ccc1Cl [1-38, 3-(4-chloro-3′,4′,5′-trifluorobiphenyl-3-yl)-4-hydroxy-8-oxa-1-azaspiro[4.5]dec-3-en-2-one] | – | 747 nM | –
COC1CCC2(CC1)OC(=O)C(c1cc(-c3ccccc3Cl)ccc1C)=C2O (stereo not drawn) [2-7, 3-(2′-chloro-4-methylbiphenyl-3-yl)-4-hydroxy-8-methoxy-1-oxaspiro[4.5]dec-3-en-2-one] | – | – | IC50 [2]: 2710 nM
Cc1ccc(-c2ccc(F)cc2F)cc1C1C(=O)N2CCOCCN2C1=O [8-5, 8-(2′,4′-difluoro-4-methylbiphenyl-3-yl)tetrahydro-7H-pyrazolo[1,2-d][1,4,5]oxadiazepine-7,9(8H)-dione] | – | 6940 nM | –
Cc1ccc(-c2ccc(Cl)cc2)cc1C1=C(O)CN(C)C1=O [1-16, 3-(4′-chloro-4-methylbiphenyl-3-yl)-4-hydroxy-1-methyl-1,5-dihydro-2H-pyrrol-2-one] | 241 nM | – | –
Cc1ccc(-c2ccc(Cl)cc2)cc1C1C(=O)N2CCOCCN2C1=O [8-6, 8-(4′-chloro-4-methylbiphenyl-3-yl)tetrahydro-7H-pyrazolo[1,2-d][1,4,5]oxadiazepine-7,9(8H)-dione] | – | 1280 nM | –
CC1OC2(CCC3(CC2)NC(=O)C(c2cc(-c4ccc(Cl)cc4)ccc2Cl)=C3O)OC1C (stereo not drawn) [1-71, 11-(4,4′-dichlorobiphenyl-3-yl)-12-hydroxy-2,3-dimethyl-1,4-dioxa-9-azadispiro[4.2.4.2]tetradec-11-en-10-one] | 912 nM | – | –
Cc1ccc(-c2ccc(Cl)cc2)cc1-c1c(O)c2ccccc2[nH]c1=O [9-5, 3-(4′-chloro-4-methylbiphenyl-3-yl)-4-hydroxyquinolin-2(1H)-one] | – | 661 nM | –
Cc1ccc(-c2ccc(F)c(Cl)c2)cc1C1=C(O)C2(CCCC2)OC1=O [2-23, 3-(3′-chloro-4′-fluoro-4-methylbiphenyl-3-yl)-4-hydroxy-1-oxaspiro[4.4]non-3-en-2-one] | – | – | IC50 [2]: 2090 nM
Cc1ccc(-c2ccc(Cl)c(C3=C(O)C4(CCOCC4)NC3=O)c2)cc1F [1-39, 3-(4-chloro-3′-fluoro-4′-methylbiphenyl-3-yl)-4-hydroxy-8-oxa-1-azaspiro[4.5]dec-3-en-2-one] | – | 1980 nM | –
COC1CCCC2(C1)OC(=O)C(c1cc(-c3ccc(Cl)cc3)ccc1Cl)=C2O (stereo not drawn) [2-13, 3-(4,4′-dichlorobiphenyl-3-yl)-4-hydroxy-7-methoxy-1-oxaspiro[4.5]dec-3-en-2-one] | 1020 nM | – | –
Cc1ccc(-c2ccc(Cl)cc2)cc1C1C(=O)N2CC(C)(F)CN2C1=O [8-12, 2-(4′-chloro-4-methylbiphenyl-3-yl)-6-fluoro-6-methyldihydro-1H,5H-pyrazolo[1,2-a]pyrazole-1,3(2H)-dione] | – | 783 nM | –
O=C1C(c2cc(-c3ccc(F)cc3F)ccc2Cl)C(=O)N2CCOCCN12 [8-11, 8-(4-chloro-2′,4′-difluorobiphenyl-3-yl)tetrahydro-7H-pyrazolo[1,2-d][1,4,5]oxadiazepine-7,9(8H)-dione] | 1360 nM | – | –
